According to patent EP0791004B1, “ACYLATED BENZYLGLYCOSIDES AS INHIBITORS OF SMOOTH MUSCLE CELL PROLIFERATION” (AMERICAN HOME PRODUCTS CORPORATION, priority 1994, dated 1996):

What was measured:
[1] = tested on: Porcine Smooth Muscle Cell; test: Cytotoxicity, MTT assay; type: cell-based; settings: up to 100 µg/mL; 24 h, medium without serum
Experimental: Briefly, cells were again grown in 24 well plates to 70 - 80 % confluency and, as before, serum deprived for 24 - 48 h prior to initiation of the experimental protocol. To insure that the MTT assay monitored toxicity rather than proliferation, cells were incubated with 100 µg/mL of drug in fresh medium without serum for 24 h at 37 °C in a humidified CO2 incubator. Upon completion of the compound treatment, MTT (3-[4,5-dimethylthiazol-2-yl]-2,5-diphenyltetrazolium bromide) indicator dye was added for 4 h at 37 °C. Cells were then lysed and aliquots from each well were transferred to a 96 well plate for analysis. Absorbance at 570 nm wavelength with a reference wavelength of 630 nm was recorded using an ELISA plate reader. Results were determined as percent viable using no drug (100% viable) and pre-solubilization (0% viable) standards.

normal human plasma = test: Anticoagulant activity, partial thromboplastin time (APTT) assay; type: biochemical; settings: human citrated plasma
Experimental: The anticlotting activity of the compounds of this invention was evaluated in a partial thromboplastin time (APTT) assay using normal human plasma collected from 5 donors according to the procedure of Fenichel et. al. (Clin. Chem. 1964, 10, 69). A BBL Fibrometer automatic precision coagulation timer utilizing a 0.3 mL probe was employed. An Ellagic acid activated partial thromboplastin was used for these experiments. This reagent was added to human citrated plasma equilibrated at 37 °C in a plastic well in the clot timer. Calcium at 37 °C was added, the clot timer was started and the time for fibrin clot formation (in seconds) was recorded. The effect of the compounds, added to plasma, over a concentration of 12.5 - 200 µg/mL was determined. […] An unfractionated heparin comparator was used over the concentration range of 1.25 - 10 µg/mL. Clotting tests at all concentrations were run in triplicate. Analysis of variance for a randomized block design was used to determine the significance of differences observed in the clotting times. […]

Structure (SMILES) | toxicity (MTT, percent viable) [1] | anticoagulant activity (APTT assay) (normal human plasma)
CC(=O)Nc1cccc(C(=O)Nc2cc(CO[C@@H]3O[C@H](COC(C)=O)[C@@H](O[C@H]4O[C@H](COC(C)=O)[C@@H](OC(C)=O)[C@H](OC(C)=O)[C@H]4OC(C)=O)[C@H](OC(C)=O)[C@H]3OC(C)=O)ccc2C)c1 [Example 6, 3-Acetylamino-N-[5-(hepta-O-acetyl-β-D-maltosyloxymethyl)-2-methylphenyl]benzamide] | no toxicity | 
CC(=O)OC[C@H]1O[C@H](O[C@H]2[C@H](OC(C)=O)[C@@H](OC(C)=O)[C@H](OCc3ccc(C)c(NC(=O)C4CCCC4)c3)O[C@@H]2COC(C)=O)[C@H](OC(C)=O)[C@@H](OC(C)=O)[C@@H]1OC(C)=O [Example 15, Cyclopentanecarboxylic Acid N-[5-(Hepta-O-acetyl-β-D-maltosyloxymethyl)-2-methylphenyl]amide] | no toxicity | 
CCCCC(=O)Nc1cc(CO[C@@H]2O[C@H](COC(C)=O)[C@@H](O[C@H]3O[C@H](COC(C)=O)[C@@H](OC(C)=O)[C@H](OC(C)=O)[C@H]3OC(C)=O)[C@H](OC(C)=O)[C@H]2OC(C)=O)ccc1C [Example 12, Pentanoic Acid N-[5-(Hepta-O-acetyl-β-D-maltosyloxymethyl)-2-methylphenyl]amide] | no toxicity | no anticoagulant activity
CCC(=O)Nc1cc(CO[C@@H]2O[C@H](COC(C)=O)[C@@H](O[C@H]3O[C@H](COC(C)=O)[C@@H](OC(C)=O)[C@H](OC(C)=O)[C@H]3OC(C)=O)[C@H](OC(C)=O)[C@H]2OC(C)=O)ccc1C [Example 11, N-[5-(Hepta-O-acetyl-β-D-maltosyloxymethyl)-2-methylphenyl]propionamide] | no toxicity | no anticoagulant activity
CC(=O)OC[C@H]1O[C@H](O[C@H]2[C@H](OC(C)=O)[C@@H](OC(C)=O)[C@H](OCc3ccc(C)c(NC(=O)C4CC4)c3)O[C@@H]2COC(C)=O)[C@H](OC(C)=O)[C@@H](OC(C)=O)[C@@H]1OC(C)=O [Example 14, Cyclopropanecarboxylic Acid N-[5-(Hepta-O-acetyl-β-D-maltosyloxymethyl)-2-methylphenyl]amide] | no toxicity | 
CC(=O)OC[C@H]1O[C@H](O[C@H]2[C@H](OC(C)=O)[C@@H](OC(C)=O)[C@H](OCc3ccc(C)c(NC(=O)CCC4CCCC4)c3)O[C@@H]2COC(C)=O)[C@H](OC(C)=O)[C@@H](OC(C)=O)[C@@H]1OC(C)=O [Example 16, N-[5-(Hepta-O-acetyl-β-D-maltosyloxymethyl)-2-methylphenyl]-3-cyclopentylpropionamide] | no toxicity | 
CC(=O)OC[C@H]1O[C@H](O[C@H]2[C@H](OC(C)=O)[C@@H](OC(C)=O)[C@H](OCc3ccc(C)c(N)c3)O[C@@H]2COC(C)=O)[C@H](OC(C)=O)[C@@H](OC(C)=O)[C@@H]1OC(C)=O [Example 3, 5-(Hepta-O-acetyl-β-maltosyloxymethyl)-2-methylphenylamine] | no toxicity | no anticoagulant activity
CC(=O)OC[C@H]1O[C@H](O[C@H]2[C@H](OC(C)=O)[C@@H](OC(C)=O)[C@H](OCc3ccc(C)c(NS(=O)(=O)c4ccc(NS(C)(=O)=O)cc4)c3)O[C@@H]2COC(C)=O)[C@H](OC(C)=O)[C@@H](OC(C)=O)[C@@H]1OC(C)=O [Example 17, N-[5-(Hepta-O-acetyl-β-D-maltosyloxymethyl)-2-methylphenyl]-4-(methanesulfonylamino)benzenesulfonamide] | no toxicity | no anticoagulant activity
